In US6069146A, “Halimide, a cytotoxic marine natural product, and derivatives thereof” (The Regents of the University of California, priority 1998, dated 2000):
Where two headings read alike, the source gives them in different places.

Columns and labels:
[1] = tested on: P388 mouse leukemia cells; assay: In vivo P388 murine leukemia model, survival
Description: The efficacy of halimide was determined in vivo in a mouse P388 model. 1×10^6 P388 mouse leukemia cells were implanted in the intraperitoneal cavity of BALB/cX DBA/2 F1 (CDF1) or C57/BL6XDBA/2 F1 (BDF1) mice (Rose et al., Cancer Res. 43:1504-1510 (1983), which is incorporated herein by reference). Halimide was dissolved in ethanol and diluted with water to a concentration of 2.7 mg/ml. Halimide was injected intraperitoneally or intravenously beginning on the first day after tumor implantation and every day thereafter for five treatments. Increases in life span were reflected by the median survival time of treated (T) versus control (C) groups; T/C was calculated. For the P388 tumor model, a T/C […] 125% is considered to be a significant increase in survival. An optimal dose of 27 mg/kg/injection, ip, produced a T/C of 153%.

[2] = tested on: dividing cells (mitotic spindle); assay: Mitotic spindle / cell division in dividing cells; type: cell-based; conditions: exposure of dividing cells
Description: (§1) Since cancer cells generally divide more rapidly than their normal cell counterpart, cancer cells generally are more susceptible than the normal cells to mitotic inhibitors such as halimide.

[3] = tested on: human ovarian carcinoma cell line A2780; assay: MTS cytotoxicity assay, A2780; type: cell-based; conditions: read-out: IC50, inhibition of cell proliferation
Description: (§2) The cytotoxicity of halimide was assessed in vitro against the human colon carcinoma cell line HCT116 and the human ovarian carcinoma cell line A2780 by MTS assay (Ribs et al., Mol. Biol. Cell 3:184a (1992), which is incorporated herein by reference). Cells were plated at 4,000 cells/well in 96 well microliter plates and, after 24 hours, halimide (dissolved in DMSO) was added and serially diluted. The cells were incubated with the compound at 37° C. for 72 hours, then the tetrazolium dye MTS was added to a final concentration of 333 μg/ml and the electron coupling agent phenazine methosulfate was added to a final concentration of 25 μM. A dehydrogenase enzyme in live cells reduces the MTS to a form that absorbs light at […], which can be quantitated spectrophotometrically.
(§3) Assay results are expressed as an IC50, which is the drug concentration required to inhibit cell proliferation by 50% compared to growth of untreated control cells.

[4] = tested on: paclitaxel-resistant A2780 cell line with altered tubulin; assay: Collateral sensitivity, paclitaxel-resistant A2780; type: cell-based, human
[5] = tested on: Bcl-2; assay: Bcl-2 phosphorylation; type: cell-based
[6] = tested on: carcinoma cells; assay: Cell cycle arrest of carcinoma cells; type: cell-based; conditions: 5 μM halimide
Description: As used herein, the term "premitotic stage," when used in reference to cells, means that the cells have not attained the anaphase stage of mitosis and, therefore, have not yet begun to divide. […] Thus, the invention provides a method of reducing or inhibiting the ability of the cells to proceed through mitosis and, therefore, proliferate, by contacting the cells with a compound of the invention.

[7] = tested on: human colon carcinoma cell line HCT116; assay: MTS cytotoxicity assay, HCT116; type: cell-based; conditions: HCT-116, HCT116, 72 hours, read-out: IC50, inhibition of cell proliferation
Description: as §2, §3

[8] = tested on: multi-drug resistant human colon carcinoma cells; assay: Cross-resistance, multi-drug resistant colon carcinoma cells; type: cell-based
[9] = tested on: 2X cycled bovine brain tubulin; assay: Inhibition of tubulin polymerization (2X cycled bovine brain tubulin, GTP); type: biochemical
Description: Thus, the compounds of the invention have an activity similar to vinca alkaloids, but are chemically distinct from the vinca alkaloids.

[10] = tested on: tubulin; assay: Binding to tubulin; conditions: each molecule of halimide to one tubulin molecule
Description: as §1

C=CC(C)(C)c1nc[nH]c1/C=C1\NC(=O)C(Cc2ccccc2)NC1=O (stereo not shown) [halimide]
survival of leukemia bearing mice (in words) ([1]; P388 model): significantly prolongs the survival of leukemia bearing mice
increase in life span ([1]; intraperitoneal injected P388 murine leukemia model): 53%
optimal dose ([1]; ip, P388 model): 27 mg/kg/injection
T/C (median survival time of treated versus control) ([1]; optimal dose 27 mg/kg/injection, ip, daily for five treatments from first day after implantation): 153%
block of the cell in a premitotic stage (in words) [2]: blocked the cell in a premitotic stage within a few minutes; the cells did not divide
effect on mitotic spindle (in words) [2]: disappearance of the mitotic spindle
IC50 ([3]; A2780, 72 hours): 820 nM
IC50 ([3]; Homo sapiens, A2780, 72 h): 800 nM
collateral sensitivity (in words) [4]: collaterally sensitive
Bcl-2 hyperphosphorylation (in words) [5]: can hyperphosphorylate Bcl-2
cell cycle arrest (in words) [6]: arrested the cells at or near the G2/M boundary of the cell cycle
IC50 [7]: 1000 nM
resistance of multi-drug resistant cells (in words) [8]: not resistant
inhibition of tubulin polymerization (in words) [9]: inhibited tubulin polymerization
inhibition of tubulin polymerization ([9]; 20 μM halimide, in the presence of GTP): 55%
binding to tubulin (in words) [10]: bound tightly to one tubulin molecule
